Calls of active or inactive are those of the source.

What is called AC50 is the concentration at which the activity in the assay is half-maximal. Usually EC50 stands for the concentration at which the effect is half-maximal.

Some targets named below: Cytochrome P450 2C9 (Homo sapiens, UniProt P11712); Cytochrome P450 2D6 (Homo sapiens, UniProt P10635); Cytochrome P450 3A4 (Homo sapiens, UniProt P08684).
The target in data set [1] is T1, Calpain-2 catalytic subunit (Sus scrofa, UniProt P43367).
T1 sequence (P43367 whole entry): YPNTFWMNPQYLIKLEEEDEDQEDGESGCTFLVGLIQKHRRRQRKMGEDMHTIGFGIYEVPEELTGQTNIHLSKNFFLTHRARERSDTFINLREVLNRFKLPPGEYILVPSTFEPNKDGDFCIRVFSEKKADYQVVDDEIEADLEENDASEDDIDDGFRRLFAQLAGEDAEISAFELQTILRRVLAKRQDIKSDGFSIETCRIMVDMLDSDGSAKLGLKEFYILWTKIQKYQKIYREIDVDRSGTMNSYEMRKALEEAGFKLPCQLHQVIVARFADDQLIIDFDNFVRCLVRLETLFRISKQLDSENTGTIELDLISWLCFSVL
As to the kind of experiment: pig calpain II inhibitor potency, dose response, biochemical, fluorogenic peptide substrate (AID 1420). It counts as functional.

Data set [2] can be described thus: C. albicans growth with fluconazole, confirmation, fluorescence, retest (AID 2467). It counts as functional, cell-based.
Data set [3] in a line: NIH-3T3 fibroblast cytotoxicity, dose response, cytotoxicity control, cell-based, fluorescence, Alamar Blue, secondary assay (AID 2327).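 Note: NIH-3T3 mouse fibroblasts cultured with fluconazole at 8 µg/mL.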 Type of data set: functional. (The colour change of resazurin is a common sign of viable cells or microbes.)
Data set [4] addresses T2, Polyadenylate-binding protein 1 (Homo sapiens, UniProt P11940). The data set is described as follows: PABP1 MLLE–PAM2 interaction inhibitors, dose response, miRNA deadenylation inhibitor project, biochemical, fluorescence polarization, Cy5-PAM2 peptide, secondary (AID 602260). It counts as functional. The conditions noted are these: read-out: IC50_Mean.
For data set [5], the target named is T2, Polyadenylate-binding protein 1. The data set is described as follows: PABP1 MLLE–PAM2 binding inhibitor potency, dose response, biochemical, fluorescence polarization, FITC-PAM2 peptide (AID 602259). It counts as functional. The conditions noted are these: read-out: IC50_Mean. For orientation: In fluorescence polarisation assays a small probe gives low polarisation when free and higher when bound to something large.

The next data set addresses Cytochrome P450 2C19 (Homo sapiens, UniProt P33261). As to the kind of experiment: Cytochrome panel assay with activity outcomes. Panel member name: p450-cyp2c19 Compounds with AC50 equal or less than 10 uM are considered active. Type of data set: functional.
The target in the next data set is T3, Cytochrome P450 1A2 (Homo sapiens, UniProt P05177).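 Note: PubChem cytochrome P450 panel assay, CYP1A2 panel member.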
T3 sequence (P05177 whole entry): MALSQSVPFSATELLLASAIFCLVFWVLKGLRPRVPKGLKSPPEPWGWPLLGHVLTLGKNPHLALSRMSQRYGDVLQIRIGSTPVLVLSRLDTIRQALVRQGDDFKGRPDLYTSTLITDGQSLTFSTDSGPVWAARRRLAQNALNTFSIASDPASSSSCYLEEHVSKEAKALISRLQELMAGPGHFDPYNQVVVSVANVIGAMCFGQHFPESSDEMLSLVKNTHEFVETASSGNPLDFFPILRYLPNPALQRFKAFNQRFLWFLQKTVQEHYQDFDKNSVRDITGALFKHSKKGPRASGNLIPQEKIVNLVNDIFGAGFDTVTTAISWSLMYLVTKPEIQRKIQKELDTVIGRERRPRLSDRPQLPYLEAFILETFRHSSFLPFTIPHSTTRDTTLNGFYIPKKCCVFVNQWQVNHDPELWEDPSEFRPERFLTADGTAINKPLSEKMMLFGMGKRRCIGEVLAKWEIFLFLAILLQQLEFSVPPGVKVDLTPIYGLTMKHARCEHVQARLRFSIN

The target in data set [6] is T4, Replicative DNA helicase DnaB (Mycobacterium tuberculosis, UniProt P9WMR3).
T4 sequence (P9WMR3 whole entry): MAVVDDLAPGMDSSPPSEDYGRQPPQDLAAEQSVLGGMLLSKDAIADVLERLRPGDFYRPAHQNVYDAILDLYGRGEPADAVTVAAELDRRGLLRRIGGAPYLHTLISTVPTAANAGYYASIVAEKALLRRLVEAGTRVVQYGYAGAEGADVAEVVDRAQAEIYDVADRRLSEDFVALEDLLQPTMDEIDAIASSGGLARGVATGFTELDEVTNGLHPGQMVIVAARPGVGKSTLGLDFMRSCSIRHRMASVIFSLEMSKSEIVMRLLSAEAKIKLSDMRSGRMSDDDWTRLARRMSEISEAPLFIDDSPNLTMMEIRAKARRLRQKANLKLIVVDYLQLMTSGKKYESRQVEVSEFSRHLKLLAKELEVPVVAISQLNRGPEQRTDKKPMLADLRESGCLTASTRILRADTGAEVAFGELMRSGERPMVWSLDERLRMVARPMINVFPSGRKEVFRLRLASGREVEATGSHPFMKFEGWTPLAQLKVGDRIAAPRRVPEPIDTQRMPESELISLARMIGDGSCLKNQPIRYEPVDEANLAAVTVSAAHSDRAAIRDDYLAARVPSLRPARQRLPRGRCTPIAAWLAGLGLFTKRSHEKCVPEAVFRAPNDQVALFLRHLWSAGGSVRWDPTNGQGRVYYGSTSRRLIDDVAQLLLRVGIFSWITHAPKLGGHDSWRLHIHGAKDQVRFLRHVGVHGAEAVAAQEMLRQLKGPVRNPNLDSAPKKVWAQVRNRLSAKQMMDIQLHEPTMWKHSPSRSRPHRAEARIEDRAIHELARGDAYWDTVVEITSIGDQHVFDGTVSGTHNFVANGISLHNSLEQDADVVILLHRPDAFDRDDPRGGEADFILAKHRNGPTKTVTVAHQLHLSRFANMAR
The data set is described as follows: DnaB intein splicing inhibitors, dose response, biochemical, cell-free fluorescence (AID 449749). It counts as functional.

The target of another data set is T5, Protein RecA (Mycobacterium tuberculosis, UniProt P9WHJ3).
T5 sequence (P9WHJ3 whole entry): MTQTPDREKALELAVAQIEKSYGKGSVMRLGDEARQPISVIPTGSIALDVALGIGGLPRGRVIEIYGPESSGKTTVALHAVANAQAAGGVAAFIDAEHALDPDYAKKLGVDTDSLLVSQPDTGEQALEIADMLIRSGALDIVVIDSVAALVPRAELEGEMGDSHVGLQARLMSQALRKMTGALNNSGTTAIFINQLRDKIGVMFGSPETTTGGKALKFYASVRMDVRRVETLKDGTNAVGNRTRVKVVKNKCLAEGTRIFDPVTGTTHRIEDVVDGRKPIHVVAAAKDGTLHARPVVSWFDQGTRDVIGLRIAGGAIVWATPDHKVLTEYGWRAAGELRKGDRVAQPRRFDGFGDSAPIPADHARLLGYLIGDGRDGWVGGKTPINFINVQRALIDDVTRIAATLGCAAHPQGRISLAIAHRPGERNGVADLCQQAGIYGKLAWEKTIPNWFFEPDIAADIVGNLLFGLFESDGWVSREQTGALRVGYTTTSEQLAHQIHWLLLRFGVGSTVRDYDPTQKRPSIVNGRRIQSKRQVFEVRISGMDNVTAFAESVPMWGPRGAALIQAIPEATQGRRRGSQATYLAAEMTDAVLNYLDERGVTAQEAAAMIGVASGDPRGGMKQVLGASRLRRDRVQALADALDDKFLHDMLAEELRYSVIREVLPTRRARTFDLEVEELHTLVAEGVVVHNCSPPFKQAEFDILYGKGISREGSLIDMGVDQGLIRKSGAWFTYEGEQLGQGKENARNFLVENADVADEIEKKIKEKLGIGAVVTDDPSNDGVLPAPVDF
As to the kind of experiment: Fluorescence Cell-Free Homogeneous Dose Retest to Identify Inhibitors of RecA-Intein Splicing Activity. [Related pubchem assays (depositor defined):AID2097, AID2223, AID489010, AID492950]. Type of data set: functional.

Data set [7] is described as follows: P. falciparum Dd2 growth inhibitors, dose response, SYBR Green, cherry-picked samples (AID 1159567). Type of data set: functional, cell-based.

Sequence of Cytochrome P450 2C9 (P11712 whole entry): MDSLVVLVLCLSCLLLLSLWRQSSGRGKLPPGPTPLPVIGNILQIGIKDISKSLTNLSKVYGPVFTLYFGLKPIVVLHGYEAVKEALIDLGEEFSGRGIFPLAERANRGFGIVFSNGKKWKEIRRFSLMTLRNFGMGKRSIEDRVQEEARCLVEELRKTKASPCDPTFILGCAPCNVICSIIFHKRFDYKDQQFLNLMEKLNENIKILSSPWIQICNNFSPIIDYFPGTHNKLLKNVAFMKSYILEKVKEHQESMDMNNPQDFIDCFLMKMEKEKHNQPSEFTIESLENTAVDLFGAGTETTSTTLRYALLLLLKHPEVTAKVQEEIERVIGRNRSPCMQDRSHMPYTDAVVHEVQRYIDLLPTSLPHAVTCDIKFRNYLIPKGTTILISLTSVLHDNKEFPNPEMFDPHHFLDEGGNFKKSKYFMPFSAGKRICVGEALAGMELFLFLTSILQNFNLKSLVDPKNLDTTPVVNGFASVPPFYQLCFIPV
T2 sequence (P11940 whole entry): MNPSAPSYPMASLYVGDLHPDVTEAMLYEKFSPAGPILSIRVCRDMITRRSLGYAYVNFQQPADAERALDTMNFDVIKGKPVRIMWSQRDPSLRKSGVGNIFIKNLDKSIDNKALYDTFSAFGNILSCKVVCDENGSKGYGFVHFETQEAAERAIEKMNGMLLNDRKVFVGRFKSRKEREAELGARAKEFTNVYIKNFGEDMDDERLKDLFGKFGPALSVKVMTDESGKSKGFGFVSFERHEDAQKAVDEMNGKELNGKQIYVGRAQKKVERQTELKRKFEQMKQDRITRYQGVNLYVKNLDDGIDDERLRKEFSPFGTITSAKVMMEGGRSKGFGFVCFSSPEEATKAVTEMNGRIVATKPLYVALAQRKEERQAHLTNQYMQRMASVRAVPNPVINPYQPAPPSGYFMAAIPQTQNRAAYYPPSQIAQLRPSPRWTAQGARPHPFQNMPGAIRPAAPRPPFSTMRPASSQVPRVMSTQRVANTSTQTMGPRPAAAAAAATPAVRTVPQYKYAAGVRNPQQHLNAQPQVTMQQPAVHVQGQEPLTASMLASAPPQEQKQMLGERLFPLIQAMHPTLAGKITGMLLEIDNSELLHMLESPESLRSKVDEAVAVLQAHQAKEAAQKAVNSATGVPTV
Sequence of Cytochrome P450 2D6 (P10635 whole entry): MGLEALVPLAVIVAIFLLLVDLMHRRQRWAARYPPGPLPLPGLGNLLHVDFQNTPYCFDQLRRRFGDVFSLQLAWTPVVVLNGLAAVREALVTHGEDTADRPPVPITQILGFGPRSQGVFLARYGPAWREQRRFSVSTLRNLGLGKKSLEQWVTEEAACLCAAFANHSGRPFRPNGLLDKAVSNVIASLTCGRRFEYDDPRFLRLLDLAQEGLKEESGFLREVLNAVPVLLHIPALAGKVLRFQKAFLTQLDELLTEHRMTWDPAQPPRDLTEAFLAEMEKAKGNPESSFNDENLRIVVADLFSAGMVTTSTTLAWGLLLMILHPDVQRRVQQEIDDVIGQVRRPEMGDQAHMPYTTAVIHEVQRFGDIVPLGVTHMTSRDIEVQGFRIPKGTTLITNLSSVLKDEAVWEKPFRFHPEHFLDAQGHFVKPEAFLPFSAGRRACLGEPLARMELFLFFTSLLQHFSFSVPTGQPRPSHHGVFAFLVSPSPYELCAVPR
Sequence of Cytochrome P450 2C19 (P33261 whole entry): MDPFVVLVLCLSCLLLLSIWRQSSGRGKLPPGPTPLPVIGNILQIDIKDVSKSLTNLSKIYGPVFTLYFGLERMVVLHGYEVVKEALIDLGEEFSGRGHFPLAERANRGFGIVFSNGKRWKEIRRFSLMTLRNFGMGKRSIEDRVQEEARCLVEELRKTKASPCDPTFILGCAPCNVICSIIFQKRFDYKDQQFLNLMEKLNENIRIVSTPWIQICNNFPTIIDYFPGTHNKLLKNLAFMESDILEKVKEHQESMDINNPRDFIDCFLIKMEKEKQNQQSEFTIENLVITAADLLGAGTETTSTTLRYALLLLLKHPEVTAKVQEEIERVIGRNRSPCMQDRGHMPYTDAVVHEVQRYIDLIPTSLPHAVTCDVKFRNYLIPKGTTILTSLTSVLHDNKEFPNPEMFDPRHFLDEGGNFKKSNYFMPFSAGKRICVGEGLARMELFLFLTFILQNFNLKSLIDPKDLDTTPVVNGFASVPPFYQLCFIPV
Sequence of Cytochrome P450 3A4 (P08684 whole entry): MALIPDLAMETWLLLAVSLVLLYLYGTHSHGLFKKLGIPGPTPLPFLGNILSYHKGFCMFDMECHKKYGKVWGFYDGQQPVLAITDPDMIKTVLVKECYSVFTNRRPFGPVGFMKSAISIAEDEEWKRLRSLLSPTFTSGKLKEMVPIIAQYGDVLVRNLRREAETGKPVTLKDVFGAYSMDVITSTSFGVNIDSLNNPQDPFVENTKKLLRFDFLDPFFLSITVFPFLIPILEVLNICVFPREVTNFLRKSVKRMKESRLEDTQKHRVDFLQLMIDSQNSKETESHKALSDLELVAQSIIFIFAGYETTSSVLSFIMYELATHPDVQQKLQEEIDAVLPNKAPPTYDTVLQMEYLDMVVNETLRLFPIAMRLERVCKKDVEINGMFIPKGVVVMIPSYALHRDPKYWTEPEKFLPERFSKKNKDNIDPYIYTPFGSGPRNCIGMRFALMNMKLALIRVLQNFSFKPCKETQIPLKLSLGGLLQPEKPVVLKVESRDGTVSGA

As to `N=C(NNC(=O)c1ccccc1)c1cc2ccccc2oc1=O`, the IC50 in data set [1] was 48.5 µM (not active).

In the case of `CC(C)Cn1c(N)c(C(=O)COC(=O)c2cccc(F)c2)c(=O)n(C)c1=O`, the IC50 in [1] is 16.2 µM (not active).

In the case of `CCOc1cc(C)ccc1OCc1nnc(SCC(=O)c2cccc([N+](=O)[O-])c2)n1CC`, the AC50 result on Cytochrome P450 2C9 is recorded as “inconclusive”.

With `Cc1c(C(=O)N2CCC(C)CC2)sc2ncnc(N3CCN(c4ccccc4)CC3)c12`, the IC50 in data set [1] is listed as 19 µM (not active).

Take `O=C(Cc1ccccc1Cl)NCCCn1ccnc1`: the IC50 in [1] was > 50 µM (not active).

As for `COc1ccc(Cl)cc1NC(=O)NCCCl`, on Cytochrome P450 2C9, the AC50 result was “inconclusive”.

Turning to `O=C(Oc1ccc(-c2ccccc2)cc1)N1CCCCC1`, the IC50 in data set [1] is 1.11 µM (not active).

With `CCOc1ccc(CCNC(=O)CN2CCN(Cc3ccc(F)cc3)C2=O)cc1OCC`, the IC50 in data set [1] was > 50 µM (not active).

For `Cc1ccc(SCC(=O)c2sc(-c3ccccc3)nc2C)cc1`, the IC50 in data set [1] is 6.06 µM (not active).

As for `COC(=O)c1[nH]c2cc(C)ccc2c1NC(=O)CN1CCc2cc(OC)c(OC)cc2C1`, the EC50 in data set [2] was > 38 µM (not active); in [3] it was > 150 µM (inactive).

With `COc1ccc2c(Cc3c4ccccc4cc4ccccc34)cncc2c1O`, the figures for the AC50 result on Cytochrome P450 2C9 and on Cytochrome P450 2D6 were “inconclusive” and 3.16 µM (inconclusive), respectively.

For `Cc1ccc(N2C(=O)C3C4C=CC(CN=C(S)Nc5cccc(Cl)c5)(O4)C3C2=O)cc1` (stereo not given), the IC50 in [4] and in data set [5] was > 66 µM (inactive) throughout.

Consider `CCOc1ccc(NC(=O)NNC(=O)c2cc3ccccc3cc2O)cc1`, for which the EC50 in data set [3] was > 150 µM (inactive).

As for `O=C(Nc1ccccn1)c1ccco1`, the AC50 result on Cytochrome P450 2C9 and at Cytochrome P450 2C19 was “inconclusive” throughout.

For the molecule `CCCCOc1cccc(C(=O)NN=C(S)NC2CCCCC2)c1`, the EC50 in [3] is 37.1 µM (active).

`CC1Cc2ccccc2N1C(=O)CCN1C(=O)C2C3C=CC(C3)C2C1=O` (stereo not given): the AC50 at Cytochrome P450 1A2 is 10 µM (inconclusive); at Cytochrome P450 2C9 it was “inconclusive”; at Cytochrome P450 2C19 (read-out: AC50) it was 10 µM (inconclusive).

`COc1ccc(CNc2ccc3c[nH]nc3c2)c(OC)c1OC`: the AC50 in data set [6] was 2.69 µM (active). In addition, at Protein RecA, the EC50 is 0.797 µM (active).

For `Cc1ccc(C(=O)NC(=S)Nc2ccc(N3CCN(C(=O)c4ccco4)CC3)cc2)cc1`, the IC50 in data set [4] and in data set [5] was > 66 µM (inactive) in each case.

`Cc1cc(SCC(=O)c2cccs2)nc2c(C)cccc12`: the AC50 entry at Cytochrome P450 2C9 was “inconclusive”.

Take `COc1ccc(N2CCN(C(c3ccccc3)c3nnnn3Cc3ccc(F)cc3)CC2)cc1` (stereo not given): in [1], the IC50 is recorded as 5 µM (not active).

On to `CSc1nn2c(C(F)(F)F)cc(C(F)(F)F)nc2c1C(=O)O`, for which the EC50 in data set [3] was > 160 µM (inactive).

As for `C=COC(=O)CSc1snc(SCC(=O)OC)c1C#N`, the AC50 in data set [6] is > 380 µM (inactive). For the same molecule, the EC50 on Protein RecA was 40.1 µM (active).

Turning to `NN=C(S)Nc1cccc(Cl)c1`, the results for the EC50 in data set [2] and in data set [3] were > 38 µM (not active) and > 150 µM (inconclusive), respectively.

Consider `CCCCNS(=O)(=O)c1ccc(OC)c(Cl)c1Cl`, for which the AC50 on Cytochrome P450 1A2 is 4.47 µM (inconclusive); at Cytochrome P450 2C9, “inconclusive”.

On to `O=C1CC/[N+](=C\c2ccc(Cl)c(Cl)c2)[N-]1`, for which, in data set [6], the AC50 is 17.8 µM (active). Also, on Protein RecA, the EC50 was 8.98 µM (active).

As for `CC1CCCN(C2=C(Cl)C(=O)N(c3cccc(Cl)c3)C2=O)C1` (stereo not given), the AC50 in data set [6] was > 380 µM (inactive). The EC50 on Protein RecA was 2.86 µM (active).

`COc1ccc(S(=O)(=O)N(C(=O)C(C)C)c2ccc3oc(=O)sc3c2)cc1`: the IC50 in [4] and in [5] was > 66 µM (inactive) throughout.

Regarding `CC(C)CNCC(=O)N1c2ccccc2Sc2ccccc21.O=C(O)C(=O)O`, the AC50 at Cytochrome P450 1A2 is 15.8 µM (inconclusive); at Cytochrome P450 2C9, “inconclusive”; at Cytochrome P450 2D6 it was 28.2 µM (inconclusive).

Take `CCc1ccc(CNC(=O)CCC(=O)N2Cc3cccc(OC)c3Oc3ncccc32)cc1`: the values for the EC50 in data set [2] and in data set [3] were > 38 µM (not active) and > 160 µM (inactive), respectively.

Take `Cc1cccc(NC(S)=NCc2cccs2)c1`: in [1], the IC50 was > 50 µM (not active).

Take `Cc1cc(C)c(S(=O)(=O)NNC(=O)C2CCN(Cc3ccccc3)CC2)c(C)c1`: the AC50 result on Cytochrome P450 2C9 is “inconclusive”; at Cytochrome P450 3A4, 22.4 µM (inconclusive).

Regarding `Oc1ccc(Br)cc1/C=N/c1cccn2cc(-c3ccccc3)nc12`, the IC50 in [4] and in data set [5] was > 66 µM (inactive) in each case.

Consider `CC(=O)N1CC[C@@H]2[C@@H](CO)Nc3ccc(C#Cc4ccccc4F)cc3[C@@H]21`, for which, in data set [7], the AC50 is 10.7 µM (active).

For the molecule `C/C=C/c1ccccc1[C@@H]1[C@@H](CO)N(S(=O)(=O)c2cccc(F)c2)[C@H]1C#N`, the AC50 in data set [7] is 6.96 µM (active).

Consider `COc1ccc2c3c([nH]c2c1)[C@@H](CO)N(Cc1ccccc1)CC31CCN(C(=O)c2cccnc2)CC1`, for which the AC50 in data set [7] was 4.55 µM (active).

Turning to `COc1ccc2c3c([nH]c2c1)[C@H](CO)N(Cc1ccccc1F)CC31CN(C(=O)C2CCC2)C1`, the AC50 in data set [7] was 7.75 µM (active).

For the origin of these results see ChEMBL document CHEMBL1201862, “PubChem BioAssay data set” (2004).
